Reference: patent US12145947B2, “Pyrimidine based modulators and uses thereof” (Quanta Therapeutics, Inc., priority 2022, dated 2024)

Key:
[1] = system: GP2D cells (KRAS G12D), phospho-ERK; assay: pERK In Cell Western (ICW) assay, GP2D cells; assay type: cell-based; settings: Table 4, 3 hours
In short: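 GP2D (10,000 cells/well) and AGS (5,000 cells/well) cells were treated for 3 h at 37 °C with a 10-point, ½-log dilution series (top […]). They were then fixed and immunostained for phospho-ERK. pERK signal was normalised to DRAQ5 and expressed as % of DMSO, with IC50 from a 4-parameter fit.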

[2] = molecular target: T1, GST-tagged KRAS-G12D (2-169) (Homo sapiens, UniProt P01116, G12D); assay: Nucleotide exchange assay (NEA), SOS-mediated, HTRF, KRAS G12D; assay type: biochemical; settings: IC50 extracted at 30 min
T1 construct: GST-tagged KRAS-G12D (2-169, Reaction Biology, MSC-11-539); purchased Reaction Biology MSC-11-539 (KRAS G12D); MSC-11-502 (SOS1cat)
T1 sequence (P01116 2-169 isoform P01116-2 G12D): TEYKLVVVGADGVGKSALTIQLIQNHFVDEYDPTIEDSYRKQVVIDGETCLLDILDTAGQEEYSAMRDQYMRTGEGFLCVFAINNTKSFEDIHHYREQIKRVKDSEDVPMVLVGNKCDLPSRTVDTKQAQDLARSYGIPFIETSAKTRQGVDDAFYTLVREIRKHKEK
In short: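 IC50 values come from 4-parameter fits at the 30 min time point of an SOS-driven exchange read by HTRF, normalised to DMSO (0%) and SOS-free blank (100%). Final reaction: 5 nM GST-KRAS-G12D (2-169), 20 nM SOScat, 150 nM fluorescent GTP-DY-647P1, after 1 h RT compound preincubation with KRAS and Tb-cryptate anti-GST.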

| Structure (SMILES) | IC50 [1] [nM] | IC50 ([2]; Table 2) [nM] | IC50 ([2]; Table 4) [nM] |
| --- | --- | --- | --- |
| CN(C)C(=O)c1nn2c(c1Cl)CN(c1nc(OC[C@@]34CCCN3C[C@H](F)C4)nc(N3CC4(CCc5sc(N)c(C#N)c54)C3)c1C#N)CCC2 [Compound 2, 5-[6-(2-amino-3-cyano-spiro[5,6-dihydrocyclopenta[b]thiophene-4,3′-azetidine]-1′-yl)-5-cyano-2-[[(2R,8S)-2-fluoro-1,2,3,5,6,7-hexahydropyrrolizin-8-yl]methoxy]pyrimidin-4-yl]-3-chloro-N,N-dimethyl-4,6,7,8-tetrahydropyrazolo[1,5-a][1,4]diazepine-2-carboxamide] | 1 to 10 | < 10 | < 10 |
| Cc1nc(-c2nn3c(c2Cl)CN(c2nc(OC[C@@]45CCCN4C[C@H](F)C5)nc(N4CC5(CCc6sc(N)c(C#N)c65)C4)c2C#N)CCC3)no1 [Compound 46, 2-amino-1′-[6-[3-chloro-2-(5-methyl-1,2,4-oxadiazol-3-yl)-4,6,7,8-tetrahydropyrazolo[1,5-a][1,4]diazepin-5-yl]-5-cyano-2-[[(2R,8S)-2-fluoro-1,2,3,5,6,7-hexahydropyrrolizin-8-yl]methoxy]pyrimidin-4-yl]spiro[5,6-dihydrocyclopenta[b]thiophene-4,3′-azetidine]-3-carbonitrile] | 10 to 100 | – | < 10 |
| CN(C)C(=O)c1nn2c(c1Cl)CN(c1nc(OC[C@@]34CCCN3C[C@H](F)C4)nc(N3CC4(CCc5sc(N)c(C#N)c54)C3)c1F)CCC2 [Compound 9, 5-[6-(2-amino-3-cyano-spiro[5,6-dihydrocyclopenta[b]thiophene-4,3′-azetidine]-1′-yl)-5-fluoro-2-[[(2R,8S)-2-fluoro-1,2,3,5,6,7-hexahydropyrrolizin-8-yl]methoxy]pyrimidin-4-yl]-3-chloro-N,N-dimethyl-4,6,7,8-tetrahydropyrazolo[1,5-a][1,4]diazepine-2-carboxamide] | 10 to 100 | – | < 10 |
| CN(C)C(=O)c1nn2c(c1Cl)CN(c1nc(OCC3(CN4CCOCC4)CC3)nc(N3CC4(CCc5sc(N)c(C#N)c54)C3)c1C#N)CCC2 [Compound 5, 5-[6-(2-amino-3-cyano-spiro[5,6-dihydrocyclopenta[b]thiophene-4,3′-azetidine]-1′-yl)-5-cyano-2-[[1-(morpholinomethyl)cyclopropyl]methoxy]pyrimidin-4-yl]-3-chloro-N,N-dimethyl-4,6,7,8-tetrahydropyrazolo[1,5-a][1,4]diazepine-2-carboxamide] | 1 to 10 | – | < 10 |
| CN(C)C1(COc2nc(N3C[C@H]4CC[C@@H](C3)N4)c(C#N)c(N3CC4(CCc5sc(N)c(C#N)c54)C3)n2)CC1 [Compound 47, 2-amino-1′-[5-cyano-6-[(1R,5S)-3,8-diazabicyclo[3.2.1]octan-3-yl]-2-[[1-(dimethylamino)cyclopropyl]methoxy]pyrimidin-4-yl]spiro[5,6-dihydrocyclopenta[b]thiophene-4,3′-azetidine]-3-carbonitrile] | 10 to 100 | – | < 10 |
| CN1CCN(CC2(COc3nc(N4C[C@H]5CC[C@@H](C4)N5)c(C#N)c(N4CC5(CCc6sc(N)c(C#N)c65)C4)n3)CC2)CC1=O [Compound 80, 2-amino-1′-[5-cyano-2-[[1-[(4-methyl-3-oxo-piperazin-1-yl)methyl]cyclopropyl]methoxy]-6-[(1R,5S)-3,8-diazabicyclo[3.2.1]octan-3-yl]pyrimidin-4-yl]spiro[5,6-dihydrocyclopenta[b]thiophene-4,3′-azetidine]-3-carbonitrile] | 1 to 10 | – | < 10 |
| N#Cc1c(N2C[C@H]3CC[C@@H](C2)N3)nc(OCC2(CN3CCOCC3)CC2)nc1N1CC2(CCCCc3sc(N)c(C#N)c32)C1 [Compound 70, 2-amino-1′-[5-cyano-2-[[1-(morpholinomethyl)cyclopropyl]methoxy]-6-[(1R,5S)-3,8-diazabicyclo[3.2.1]octan-3-yl]pyrimidin-4-yl]spiro[5,6,7,8-tetrahydrocyclohepta[b]thiophene-4,3′-azetidine]-3-carbonitrile] | 10 to 100 | – | < 10 |
| N#Cc1c(N2CC3(CCc4sc(N)c(C#N)c43)C2)nc(OC[C@@]23CCCN2C[C@H](F)C3)nc1N1CCC[C@]2(C1)NC(=O)NC2=O [Compound 11, 2-amino-1′-[5-cyano-6-[(5R)-2,4-dioxo-1,3,9-triazaspiro[4.5]decan-9-yl]-2-[[(2R,8S)-2-fluoro-1,2,3,5,6,7-hexahydropyrrolizin-8-yl]methoxy]pyrimidin-4-yl]spiro[5,6-dihydrocyclopenta[b]thiophene-4,3′-azetidine]-3-carbonitrile] | 1000 to 10000 | – | < 10 |
| N#Cc1c(N)sc2c1C1(CC2)CN(c2nc(OC[C@@]34CCCN3C[C@H](F)C4)nc(N3C[C@H]4CC[C@@H](C3)N4)c2F)C1 [Compound 15, 2-amino-1′-[6-(3,8-diazabicyclo[3.2.1]octan-3-yl)-5-fluoro-2-[[(2R,8S)-2-fluoro-1,2,3,5,6,7-hexahydropyrrolizin-8-yl]methoxy]pyrimidin-4-yl]spiro[5,6-dihydrocyclopenta[b]thiophene-4,3′-azetidine]-3-carbonitrile] | 10 to 100 | – | < 10 |
| N#Cc1c(N2C[C@H]3CC[C@@H](C2)N3)nc(OCC2(CN3CCOCC3)CC2)nc1N1CC2(C1)c1c(sc(N)c1C#N)CC2F (stereo partly drawn) [Compound 101, 2-amino-1′-[5-cyano-6-[(1R,5S)-3,8-diazabicyclo[3.2.1]octan-3-yl]-2-[[1-(morpholinomethyl)cyclopropyl]methoxy]pyrimidin-4-yl]-5-fluoro-spiro[5,6-dihydrocyclopenta[b]thiophene-4,3′-azetidine]-3-carbonitrile] | 1 to 10 | – | < 10 |
| N#Cc1c(N)sc2c1C1(CC2)CN(c2nc(OCC3(CN4CCOCC4)CC3)nc(N3C[C@H]4CC[C@@H](C3)N4)c2F)C1 [Compound 22, 2-amino-1′-[6-(3,8-diazabicyclo[3.2.1]octan-3-yl)-5-fluoro-2-[[1-(morpholinomethyl)cyclopropyl]methoxy]pyrimidin-4-yl]spiro[5,6-dihydrocyclopenta[b]thiophene-4,3′-azetidine]-3-carbonitrile] | 10 to 100 | – | < 10 |
| N#Cc1c(N2C[C@H]3CC[C@@H](C2)N3)nc(OCC2(CN3CC[S+]([O-])CC3)CC2)nc1N1CC2(CCc3sc(N)c(C#N)c32)C1 [Compound 71, 2-amino-1′-[5-cyano-6-[(1R,5S)-3,8-diazabicyclo[3.2.1]octan-3-yl]-2-[[1-[(1-oxo-1,4-thiazinan-4-yl)methyl]cyclopropyl]methoxy]pyrimidin-4-yl]spiro[5,6-dihydrocyclopenta[b]thiophene-4,3′-azetidine]-3-carbonitrile] | 100 to 1000 | – | < 10 |
| Cc1n[nH]nc1COc1nc(N2C[C@H]3CC[C@@H](C2)N3)c(C#N)c(N2CC3(CCc4sc(N)c(C#N)c43)C2)n1 [Compound 108] | 1000 to 10000 | – | 10 to 100 |
| CN(C)CC1(COc2nc(N3CCCn4nc(C(=O)N(C)C)c(Cl)c4C3)c(C#N)c(N3CC4(CCc5sc(N)c(C#N)c54)C3)n2)CC1(F)F (centres unmarked) [Compound 87, 5-[6-(2-amino-3-cyano-spiro[5,6-dihydrocyclopenta[b]thiophene-4,3′-azetidine]-1′-yl)-5-cyano-2-[[1-[(dimethylamino)methyl]-2,2-difluoro-cyclopropyl]methoxy]pyrimidin-4-yl]-3-chloro-N,N-dimethyl-4,6,7,8-tetrahydropyrazolo[1,5-a][1,4]diazepine-2-carboxamide] | 1 to 10 | – | < 10 |
| N#Cc1c(N2CCCn3nc(-c4ccccn4)c(Cl)c3C2)nc(OCC2(CN3CCOCC3)CC2)nc1N1CC2(CCc3sc(N)c(C#N)c32)C1 [Compound 75, 2-amino-1′-[6-[3-chloro-2-(2-pyridyl)-4,6,7,8-tetrahydropyrazolo[1,5-a][1,4]diazepin-5-yl]-5-cyano-2-[[1-(morpholinomethyl)cyclopropyl]methoxy]pyrimidin-4-yl]spiro[5,6-dihydrocyclopenta[b]thiophene-4,3′-azetidine]-3-carbonitrile] | 10 to 100 | – | < 10 |
| Cn1c(-c2nn3c(c2Cl)CN(c2nc(OC[C@@]45CCCN4C[C@H](F)C5)nc(N4CC5(CCc6sc(N)c(C#N)c65)C4)c2C#N)CCC3)nc2c(F)cccc21 [Compound 32, 2-amino-1′-[6-[3-chloro-2-(4-fluoro-1-methyl-benzimidazol-2-yl)-4,6,7,8-tetrahydropyrazolo[1,5-a][1,4]diazepin-5-yl]-5-cyano-2-[[(2R,8S)-2-fluoro-1,2,3,5,6,7-hexahydropyrrolizin-8-yl]methoxy]pyrimidin-4-yl]spiro[5,6-dihydrocyclopenta[b]thiophene-4,3′-azetidine]-3-carbonitrile] | 10 to 100 | – | < 10 |
| CN(CCOc1nc(N2C[C@H]3CC[C@@H](C2)N3)c(C#N)c(N2CC3(CCc4sc(N)c(C#N)c43)C2)n1)C1CCC1 [Compound 48, 2-amino-1′-[5-cyano-2-[2-[cyclobutyl(methyl)amino]ethoxy]-6-[(1R,5S)-3,8-diazabicyclo[3.2.1]octan-3-yl]pyrimidin-4-yl]spiro[5,6-dihydrocyclopenta[b]thiophene-4,3′-azetidine]-3-carbonitrile] | 100 to 1000 | – | 10 to 100 |
